In ChEMBL document CHEMBL1133048, “A QSAR study investigating the effect of L-alanine ester variation on the anti-HIV activity of some phosphoramidate derivatives of d4T” (2000):

Assays:
CCRF-CEM [1] = assay: Effective concentration required to inhibit 50% of HIV-1 induced giant cell formation in CEM cell cultures; assay type: functional, Homo sapiens
CCRF-CEM [2] = assay: Cytotoxic concentration required to inhibit CEM cell proliferation by 50%; assay type: functional; conditions: Homo sapiens
CCRF-CEM [3] = assay: Effective concentration required to inhibit 50% of HIV-2 induced giant cell formation in CEM cell cultures; assay type: functional, Homo sapiens

**Q.** Which “Log 1/EC50” value (CCRF-CEM [1]) does the source give for `Cc1cn(C2C=CC(COP(=O)(NC(C)C(=O)OC(C)(C)C)Oc3ccccc3)O2)c(=O)[nH]c1=O` (stereo not drawn) here?
**A.** 0.071

**Q.** And the CC50 (CCRF-CEM [2])?
**A.** 250 µM

**Q.** And the “Log 1/EC50” value (CCRF-CEM [3])?
**A.** -0.041

**Q.** `Cc1cn(C2C=CC(COP(=O)(NC(C)C(=O)OCC3CCCCC3)Oc3ccccc3)O2)c(=O)[nH]c1=O` (stereo not drawn) was tested. Which “Log 1/EC50” value (CCRF-CEM [1]) did it give?
**A.** 1.4

**Q.** What about the CC50 (CCRF-CEM [2]) of the same molecule?
**A.** 12.1 µM

**Q.** For `CCCOC(=O)C(C)NP(=O)(OCC1C=CC(n2cc(C)c(=O)[nH]c2=O)O1)Oc1ccccc1` (stereo not drawn), which “Log 1/EC50” value (CCRF-CEM [1]) is on record?
**A.** 1.33

**Q.** What about the CC50 (CCRF-CEM [2]) of the same molecule?
**A.** 40 µM

**Q.** And the “Log 1/EC50” value (CCRF-CEM [3])?
**A.** 1.1

**Q.** Which “Log 1/EC50” value (CCRF-CEM [1]) does the source give for `Cc1cn(C2C=CC(COP(=O)(NC(C)C(=O)Oc3ccccc3)Oc3ccccc3)O2)c(=O)[nH]c1=O` (stereo not drawn) here?
**A.** 1.6

**Q.** And the “Log 1/EC50” value (CCRF-CEM [3])?
**A.** 1.1

**Q.** Which “Log 1/EC50” value (CCRF-CEM [1]) does the source give for `Cc1cn(C2C=CC(COP(=O)(NC(C)C(=O)OC3CCCCC3)Oc3ccccc3)O2)c(=O)[nH]c1=O` (stereo not drawn) here?
**A.** 1.19

**Q.** And the CC50 (CCRF-CEM [2])?
**A.** 51.4 µM

**Q.** And the “Log 1/EC50” value (CCRF-CEM [3])?
**A.** 1.13

**Q.** Which results are given for `Cc1cn(C2C=CC(COP(=O)(NC(C)C(=O)OCC(C)(C)C)Oc3ccccc3)O2)c(=O)[nH]c1=O` (stereo not drawn)?
**A.** Log 1/EC50 (CCRF-CEM [1]): 1.3; CC50 (CCRF-CEM [2]): 43.5 µM; Log 1/EC50 (CCRF-CEM [3]): 1.35

**Q.** For `Cc1cn(C2C=CC(COP(=O)(NC(C)C(=O)OCc3cccc4ccccc34)Oc3ccccc3)O2)c(=O)[nH]c1=O` (stereo not drawn), which “Log 1/EC50” value (CCRF-CEM [1]) is on record?
**A.** 1.52

**Q.** What about the CC50 (CCRF-CEM [2]) of the same molecule?
**A.** 21.6 µM

**Q.** And the “Log 1/EC50” value (CCRF-CEM [3])?
**A.** 1.22

**Q.** Which results are given for `COC(=O)C(C)NP(=O)(OC[C@@H]1C=C[C@H](n2cc(C)c(=O)[nH]c2=O)O1)Oc1ccccc1` (stereo partly drawn)?
**A.** Log 1/EC50 (CCRF-CEM [1]): 1.13; CC50 (CCRF-CEM [2]): 100 µM; Log 1/EC50 (CCRF-CEM [3]): 1.13

**Q.** For `CCCCOC(=O)C(C)NP(=O)(OCC1C=CC(n2cc(C)c(=O)[nH]c2=O)O1)Oc1ccccc1` (stereo not drawn), which CC50 (CCRF-CEM [2]) is on record?
**A.** 60 µM

**Q.** Which “Log 1/EC50” value (CCRF-CEM [1]) does the source give for `Cc1cn(C2C=CC(COP(=O)(NC(C)C(=O)OCCc3ccccc3)Oc3ccccc3)O2)c(=O)[nH]c1=O` (stereo not drawn) here?
**A.** 0.071

**Q.** What about the CC50 (CCRF-CEM [2]) of the same molecule?
**A.** 250 µM

**Q.** And the “Log 1/EC50” value (CCRF-CEM [3])?
**A.** 0.155

**Q.** What does the source list for `Cc1cn(C2C=CC(COP(=O)(NC(C)C(=O)OCCCc3ccccc3)Oc3ccccc3)O2)c(=O)[nH]c1=O` (stereo not drawn)?
**A.** Log 1/EC50 (CCRF-CEM [1]): 0; CC50 (CCRF-CEM [2]): 250 µM; Log 1/EC50 (CCRF-CEM [3]): -0.217

**Q.** What does the source list for `CCCCCOC(=O)C(C)NP(=O)(OCC1C=CC(n2cc(C)c(=O)[nH]c2=O)O1)Oc1ccccc1` (stereo not drawn)?
**A.** Log 1/EC50 (CCRF-CEM [1]): 1.35; CC50 (CCRF-CEM [2]): 40.5 µM; Log 1/EC50 (CCRF-CEM [3]): 1.1

**Q.** What does the source list for `CCOC(=O)C(C)NP(=O)(OCC1C=CC(n2cc(C)c(=O)[nH]c2=O)O1)Oc1ccccc1` (stereo not drawn)?
**A.** Log 1/EC50 (CCRF-CEM [1]): 1; CC50 (CCRF-CEM [2]): 55 µM; Log 1/EC50 (CCRF-CEM [3]): 1.16

**Q.** Which “Log 1/EC50” value (CCRF-CEM [1]) does the source give for `CCCCCCOC(=O)C(C)NP(=O)(OCC1C=CC(n2cc(C)c(=O)[nH]c2=O)O1)Oc1ccccc1` (stereo not drawn) here?
**A.** 1.22

**Q.** And the CC50 (CCRF-CEM [2])?
**A.** 48 µM

**Q.** What about the “Log 1/EC50” value (CCRF-CEM [3]) of the same molecule?
**A.** 1.26
